Data published in EP3818977A1, “CD93 INHIBITORS FOR USE IN THE TREATMENT OF CANCER” (Universität Bern, priority 2019, dated 2021).

Assays:
[1] = tested on: murine LSCs; experiment: Colony assay of murine LSCs in methylcellulose; format: cell-based, mouse
Method: Colony assays from BM lin^- cells of CML and naive mice and CD34^+ stem/progenitor cells of human CML patients were performed as described before ([…] et al. 2015). For mouse colony assays 10^3 FACS-purified LSKs or LSCs were plated in methylcellulose and colonies were enumerated 7 days later. For serial re-plating experiments, 10^4 cells were collected from preceding colony assays and re-plated in methylcellulose. Colonies were enumerated 7 days later. For experiments using metoclopramide (Sigma), 10^3 FACS-purified murine LSCs or 2x10^3 human CD34^+ […] methylcellulose. Colony were enumerated 7 days and 14 days later, respectively. For re-plating assays 10^4or 2x10^4 cells isolated from primary mouse and human colony assays, respectively, were subsequently replated in methylcellulose in the absence of any compound. Colony were enumerated 7 days and 14 days later, respectively.

[2] = tested on: human CD34^+CD38^- LSCs; experiment: Colony and re-plating assay of human CML stem/progenitor cells in semisolid culture; format: cell-based; conditions: 0.1µM, semisolid cultures, compared to control treatment
Method: Colony assays from BM lin^- cells of CML and naive mice and CD34^+ stem/progenitor cells of human CML patients were performed as described before (Riether et al. 2015).
For experiments using metoclopramide (Sigma), 10^3 FACS-purified murine LSCs or 2x10^3 human CD34^+ stem/progenitor cells were incubated overnight in 96 well V-bottom plates in the presence of 0.1 and 1µM metoclopramide or vehicle followed by plating methylcellulose. Colony were enumerated 7 days and 14 days later, respectively.
For re-plating assays 10^4or 2x10^4 cells isolated from primary mouse and human colony assays, respectively, were subsequently replated in methylcellulose in the absence of any compound. Colony were enumerated 7 days and 14 days later, respectively.

CCN(CC)CCNC(=O)c1cc(Cl)c(N)cc1OC [metoclopramide, Metoclopramide] was tested, and the “colony formation of murine LSCs” value [1] was “effective in reducing colony formation of murine LSCs”, the “clonogenic potential of CD93-competent LSCs” value ([1]; in vitro, BL/6 LSCs cultured overnight with 1mM metoclopramide (Fig. 6H), colonies assessed 7 days later) was “reduced clonogenic potential of CD93-competent LSCs to comparable levels as CD93-deficient LSCs” and the “colony formation of CD93-deficient LSCs” value ([1]; in vitro, Cd93^-/- LSCs cultured overnight with 1mM metoclopramide (Fig. 6H), colonies assessed 7 days later) was “without further affecting colony formation of CD93-deficient LSCs”. For the same compound, the colony formation [2] was “significantly impaired” and the re-plating capacity ([2]; re-plating in the absence of compound) was “significantly impaired”.
CC(CN1c2ccccc2Sc2ccccc21)N(C)C (stereo not drawn) [promethazine, Promethazine] was tested, and the “colony formation of murine LSCs” value [1] was “effective in reducing colony formation of murine LSCs”.
